Results published in patent US20250320193A1, “OXOISOINDOLINYL SUBSTITUTED PIPERIDINEDIONE DERIVATIVE AND USE THEREOF” (GLUETACS THERAPEUTICS (SHANGHAI) CO., LTD., priority 2022, published 2025).

Columns and labels:
[1] = target: human Cereblon WT GST-tagged protein (Homo sapiens (Human), UniProt Q96SW2); assay: CRBN-binding affinity, HTRF (CEREBLON BINDING kit, CISBIO); conditions: HTRF inhibitory activity
Procedure, shortened: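 HTRF competition format: test compound displaces Thalidomide-Red from GST-tagged human Cereblon WT, detected with a Eu-labelled anti-GST antibody. Percent CRBN binding inhibition was derived from the 620 nm signal, normalized to solvent-control and protein-free blank wells.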

IKZF1 = IKZF1 (Homo sapiens (Human), UniProt Q13422+Q96SW2); assay: Western blot, substrate protein expression in hPBMC: IKZF1; type: cell-based; conditions: for substrate protein remaining % IKZF1: hPBMC, compound 500 nM, 24 hours, Western blot
Procedure, shortened: (§1)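 hPBMC, 1×10^6 cells/mL, 24 h compound exposure; RIPA lysis, BCA protein assay, SDS-PAGE, NC membrane immunoblot. Densitometry vs internal control → % protein remaining; degradation % = 100% − remaining; DC50 = conc. at 50% of DMSO band signal.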

IKZF3 = IKZF3 (Homo sapiens (Human), UniProt Q96SW2+Q9UKT9); assay: Western blot, substrate protein expression in hPBMC: IKZF3; type: cell-based; conditions: for substrate protein remaining % IKZF3: hPBMC, compound 500 nM, 24 hours, Western blot
Procedure, shortened: as §1

GSPT1 = GSPT1 (Homo sapiens (Human), UniProt P15170+Q96SW2); assay: Western blot, substrate protein expression in hPBMC: GSPT1; type: cell-based; conditions: for substrate protein remaining % GSPT1: hPBMC, compound 500 nM, 24 hours, Western blot
Procedure, shortened: as §1

IKZF3, sequence (Q9UKT9 whole entry): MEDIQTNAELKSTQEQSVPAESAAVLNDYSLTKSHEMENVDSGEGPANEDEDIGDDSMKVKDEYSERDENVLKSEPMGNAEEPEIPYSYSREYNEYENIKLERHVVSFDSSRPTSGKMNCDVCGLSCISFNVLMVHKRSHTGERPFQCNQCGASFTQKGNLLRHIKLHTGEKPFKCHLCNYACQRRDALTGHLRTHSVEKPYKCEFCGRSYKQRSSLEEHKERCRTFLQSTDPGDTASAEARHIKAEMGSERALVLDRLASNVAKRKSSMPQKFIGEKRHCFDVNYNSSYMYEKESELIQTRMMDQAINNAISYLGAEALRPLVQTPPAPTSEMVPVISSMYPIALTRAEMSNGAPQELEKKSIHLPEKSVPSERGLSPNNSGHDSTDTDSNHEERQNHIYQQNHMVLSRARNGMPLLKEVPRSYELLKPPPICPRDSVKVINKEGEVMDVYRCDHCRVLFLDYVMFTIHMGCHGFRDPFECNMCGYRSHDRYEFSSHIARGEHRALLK
IKZF3, sequence (Q96SW2 whole entry): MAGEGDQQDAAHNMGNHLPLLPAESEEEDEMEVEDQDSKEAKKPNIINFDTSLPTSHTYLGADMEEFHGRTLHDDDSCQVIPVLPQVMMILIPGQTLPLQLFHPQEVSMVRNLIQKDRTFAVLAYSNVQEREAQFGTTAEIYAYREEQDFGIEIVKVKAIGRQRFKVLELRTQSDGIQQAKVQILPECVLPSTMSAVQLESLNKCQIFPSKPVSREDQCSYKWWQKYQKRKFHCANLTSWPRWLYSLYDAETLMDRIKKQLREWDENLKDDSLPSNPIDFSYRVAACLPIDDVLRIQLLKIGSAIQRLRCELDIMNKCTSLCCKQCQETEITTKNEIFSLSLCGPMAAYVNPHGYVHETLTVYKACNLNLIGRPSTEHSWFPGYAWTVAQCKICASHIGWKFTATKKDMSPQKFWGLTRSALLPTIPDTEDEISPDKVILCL
IKZF3, sequence (Q16531 whole entry partner): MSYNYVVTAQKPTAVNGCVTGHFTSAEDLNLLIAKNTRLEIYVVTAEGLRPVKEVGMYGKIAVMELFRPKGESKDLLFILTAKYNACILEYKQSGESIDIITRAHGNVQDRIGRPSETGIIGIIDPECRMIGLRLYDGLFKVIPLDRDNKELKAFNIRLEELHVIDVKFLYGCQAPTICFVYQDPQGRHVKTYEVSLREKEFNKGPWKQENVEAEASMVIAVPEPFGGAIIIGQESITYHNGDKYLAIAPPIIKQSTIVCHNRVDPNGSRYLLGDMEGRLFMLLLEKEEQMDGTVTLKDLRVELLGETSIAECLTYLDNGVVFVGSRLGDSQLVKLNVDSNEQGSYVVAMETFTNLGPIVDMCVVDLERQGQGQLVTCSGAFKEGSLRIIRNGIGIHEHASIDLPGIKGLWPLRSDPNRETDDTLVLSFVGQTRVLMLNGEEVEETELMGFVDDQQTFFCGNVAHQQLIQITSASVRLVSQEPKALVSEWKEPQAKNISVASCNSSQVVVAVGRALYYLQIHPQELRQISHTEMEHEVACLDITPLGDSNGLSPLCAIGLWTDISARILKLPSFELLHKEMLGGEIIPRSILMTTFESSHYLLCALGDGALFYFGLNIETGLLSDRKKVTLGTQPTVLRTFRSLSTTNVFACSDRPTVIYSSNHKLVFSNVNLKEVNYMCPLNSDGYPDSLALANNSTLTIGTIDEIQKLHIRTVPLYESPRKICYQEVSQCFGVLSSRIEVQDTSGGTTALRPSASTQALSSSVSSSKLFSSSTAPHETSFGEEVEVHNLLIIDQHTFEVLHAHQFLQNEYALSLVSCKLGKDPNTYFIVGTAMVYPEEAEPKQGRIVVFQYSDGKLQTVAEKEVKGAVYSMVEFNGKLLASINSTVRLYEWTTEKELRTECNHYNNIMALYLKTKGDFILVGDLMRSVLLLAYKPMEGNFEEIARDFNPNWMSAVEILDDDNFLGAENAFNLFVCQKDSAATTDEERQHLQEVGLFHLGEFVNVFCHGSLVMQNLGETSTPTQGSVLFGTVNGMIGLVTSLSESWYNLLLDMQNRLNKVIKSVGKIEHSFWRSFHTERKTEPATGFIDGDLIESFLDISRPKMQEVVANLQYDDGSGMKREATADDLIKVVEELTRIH
IKZF1, sequence (Q13422 whole entry): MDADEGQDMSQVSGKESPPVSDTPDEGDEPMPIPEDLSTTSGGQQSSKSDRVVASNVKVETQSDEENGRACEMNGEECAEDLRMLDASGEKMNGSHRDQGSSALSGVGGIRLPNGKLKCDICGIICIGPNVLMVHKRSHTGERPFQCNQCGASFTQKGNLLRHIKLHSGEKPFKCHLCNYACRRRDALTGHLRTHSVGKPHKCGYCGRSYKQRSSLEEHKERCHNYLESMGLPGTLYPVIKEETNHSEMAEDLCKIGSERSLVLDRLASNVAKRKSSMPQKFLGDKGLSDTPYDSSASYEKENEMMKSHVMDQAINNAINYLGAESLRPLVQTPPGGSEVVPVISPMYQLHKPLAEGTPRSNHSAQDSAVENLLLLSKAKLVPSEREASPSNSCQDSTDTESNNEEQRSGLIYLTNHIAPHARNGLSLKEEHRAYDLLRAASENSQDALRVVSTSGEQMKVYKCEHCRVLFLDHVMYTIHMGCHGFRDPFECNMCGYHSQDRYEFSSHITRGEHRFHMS
IKZF1, sequence (Q96SW2 whole entry): as the sequence (Q96SW2 whole entry) above
IKZF1, sequence (Q16531 whole entry partner): as the sequence (Q16531 whole entry partner) above
human Cereblon WT GST-tagged protein, sequence (Q96SW2 whole entry): as the sequence (Q96SW2 whole entry) above
GSPT1, sequence (P15170 whole entry): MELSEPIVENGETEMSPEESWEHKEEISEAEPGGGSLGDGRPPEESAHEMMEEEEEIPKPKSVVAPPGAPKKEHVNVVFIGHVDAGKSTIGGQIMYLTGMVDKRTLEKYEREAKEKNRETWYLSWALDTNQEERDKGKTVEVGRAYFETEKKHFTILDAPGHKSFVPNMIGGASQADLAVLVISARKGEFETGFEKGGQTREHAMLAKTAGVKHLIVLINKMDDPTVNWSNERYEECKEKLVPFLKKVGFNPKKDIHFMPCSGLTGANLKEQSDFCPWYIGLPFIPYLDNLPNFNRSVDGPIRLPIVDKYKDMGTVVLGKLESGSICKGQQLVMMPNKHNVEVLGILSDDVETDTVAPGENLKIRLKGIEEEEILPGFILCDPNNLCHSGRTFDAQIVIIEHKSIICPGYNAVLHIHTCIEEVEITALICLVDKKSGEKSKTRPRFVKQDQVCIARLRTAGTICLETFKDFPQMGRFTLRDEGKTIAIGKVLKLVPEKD
GSPT1, sequence (Q96SW2 whole entry): as the sequence (Q96SW2 whole entry) above
GSPT1, sequence (Q16531 whole entry partner): as the sequence (Q16531 whole entry partner) above

SMILES | IC50 [1] [µM] | substrate protein remaining % IKZF1 (IKZF1) | substrate protein remaining % IKZF3 (IKZF3) | substrate protein remaining % GSPT1 (GSPT1) | concentration at which GSPT1 protein was clearly/significantly degraded (Western blot, FIG. 1) (GSPT1; hPBMCs) [nM] | concentration at which IKZF1 protein was significantly degraded (Western blot, FIG. 1) (IKZF1; hPBMCs) | concentration at which IKZF3 protein was significantly degraded (Western blot, FIG. 1) (IKZF3; hPBMCs)
O=C1CCC(N2Cc3c(ccc(CN4C5CCC4CN(C(c4ccccc4)c4ccccc4)C5)c3F)C2=O)C(=O)N1 (stereo not shown) [GT-03838, 3-(5-((3-benzhydryl-3,8-diazabicyclo[3.2.1]octan-8-yl)methyl)-4-fluoro-1-oxoisoindolin-2-yl)piperidine-2,6-dione] | 0.5 to 1 | A (A represents 0% ≤ substrate protein remaining % ≤ 50%) | A (A represents 0% ≤ substrate protein remaining % ≤ 50%) | A (A represents 0% ≤ substrate protein remaining % ≤ 50%) |  |  | 
CC1CN(Cc2ccc3c(c2)CN(C2CCC(=O)NC2=O)C3=O)CC(C)N1C(c1ccccc1)c1ccccc1 (stereo not shown) [GT-03872, 3-(5-((4-benzhydryl-3,5-dimethylpiperazin-1-yl)methyl)-1-oxoisoindolin-2-yl)piperidine-2,6-dione] | 1 to 1.9 | B (B represents substrate protein remaining % > 50%) | A (A represents 0% ≤ substrate protein remaining % ≤ 50%) | A (A represents 0% ≤ substrate protein remaining % ≤ 50%) |  |  | 
CC1CN(C(c2ccccc2)c2ccccc2)CC(C)N1Cc1cc2c(cc1F)C(=O)N(C1CCC(=O)NC1=O)C2 (stereo not shown) [GT-03873, 3-(5-((4-benzhydryl-2,6-dimethylpiperazin-1-yl)methyl)-6-fluoro-1-oxoisoindolin-2-yl)piperidine-2,6-dione] | < 0.5 | A (A represents 0% ≤ substrate protein remaining % ≤ 50%) | B (B represents substrate protein remaining % > 50%) | A (A represents 0% ≤ substrate protein remaining % ≤ 50%) |  |  | 
O=C1CCC(N2Cc3cc(CN4CC5CCC4CN5C(c4ccccc4)c4ccccc4)ccc3C2=O)C(=O)N1 (stereo not shown) [GT-03993, 3-(5-((5-benzhydryl-2,5-diazabicyclo[2.2.2]octan-2-yl)methyl)-1-oxoisoindolin-2-yl)piperidine-2,6-dione] | < 0.5 | B (B represents substrate protein remaining % > 50%) | A (A represents 0% ≤ substrate protein remaining % ≤ 50%) | A (A represents 0% ≤ substrate protein remaining % ≤ 50%) |  |  | 
O=C1CCC(N2Cc3cc(CN4CCCN(C(c5ccccc5)c5ccccc5)CC4)ccc3C2=O)C(=O)N1 (stereo not shown) [GT-03994, 3-(5-((4-benzhydryl-1,4-diazepan-1-yl)methyl)-1-oxoisoindolin-2-yl)piperidine-2,6-dione] | < 0.5 | B (B represents substrate protein remaining % > 50%) | B (B represents substrate protein remaining % > 50%) | A (A represents 0% ≤ substrate protein remaining % ≤ 50%) |  |  | 
O=C1CCC(N2Cc3c(ccc(CN4CC5CCC4CN5C(c4ccccc4)c4ccccc4)c3F)C2=O)C(=O)N1 (stereo not shown) [GT-04163, 3-(5-((5-benzhydryl-2,5-diazabicyclo[2.2.2]octan-2-yl)methyl)-4-fluoro-1-oxoisoindolin-2-yl)piperidine-2,6-dione] | 0.5 to 1 | B (B represents substrate protein remaining % > 50%) | A (A represents 0% ≤ substrate protein remaining % ≤ 50%) | A (A represents 0% ≤ substrate protein remaining % ≤ 50%) |  |  | 
O=C1CCC(N2Cc3c(ccc(CN4CCCN(C(c5ccccc5)c5ccccc5)CC4)c3F)C2=O)C(=O)N1 (stereo not shown) [GT-04164, 3-(5-((4-benzhydryl-1,4-diazepan-1-yl)methyl)-4-fluoro-1-oxoisoindolin-2-yl)piperidine-2,6-dione] | 0.5 to 1 | B (B represents substrate protein remaining % > 50%) | B (B represents substrate protein remaining % > 50%) | A (A represents 0% ≤ substrate protein remaining % ≤ 50%) |  |  | 
O=C1CCC(N2Cc3cc(CN4CCN(C(c5ccccn5)c5ccccn5)CC4)ccc3C2=O)C(=O)N1 (stereo not shown) [GT-04383, 3-(5-((4-(di(pyridin-2-yl)methyl)piperazin-1-yl)methyl)-1-oxoisoindolin-2-yl)piperidine-2,6-dione] | < 0.5 | B (B represents substrate protein remaining % > 50%) | B (B represents substrate protein remaining % > 50%) | A (A represents 0% ≤ substrate protein remaining % ≤ 50%) |  |  | 
O=C1CCC(N2Cc3cc(CN4CCN(C(c5ccccn5)c5ccccn5)CC4)c(F)cc3C2=O)C(=O)N1 (stereo not shown) [GT-04384, 3-(5-((4-(di(pyridin-2-yl)methyl)piperazin-1-yl)methyl)-6-fluoro-1-oxoisoindolin-2-yl)piperidine-2,6-dione] | 0.5 to 1 | B (B represents substrate protein remaining % > 50%) | B (B represents substrate protein remaining % > 50%) | A (A represents 0% ≤ substrate protein remaining % ≤ 50%) |  |  | 
O=C1CCC(N2Cc3c(CN4CCN(C(c5ccccc5)c5ccncc5)CC4)cccc3C2=O)C(=O)N1 (stereo not shown) [GT-04945, 3-(1-oxo-4-((4-(phenyl(pyridin-4-yl)methyl)piperazin-1-yl)methyl)isoindolin-2-yl)piperidine-2,6-dione] | 0.5 to 1 | B (B represents substrate protein remaining % > 50%) | B (B represents substrate protein remaining % > 50%) | A (A represents 0% ≤ substrate protein remaining % ≤ 50%) |  |  | 
O=C1CCC(N2Cc3c(CN4CCC(N(c5ccccc5)c5ccccn5)CC4)cccc3C2=O)C(=O)N1 (stereo not shown) [GT-04948, 3-(1-oxo-4-((4-(phenyl(pyridin-2-yl)amino)piperidin-1-yl)methyl)isoindolin-2-yl)piperidine-2,6-dione] | 0.5 to 1 | B (B represents substrate protein remaining % > 50%) | B (B represents substrate protein remaining % > 50%) | A (A represents 0% ≤ substrate protein remaining % ≤ 50%) | < 500 |  | 
O=C1CCC(N2Cc3c(CN4CCC(N(c5ccccc5)c5ccccc5)CC4)cccc3C2=O)C(=O)N1 (stereo not shown) [GT-04992, 3-(4-((4-(diphenylamino)piperidin-1-yl)methyl)-1-oxoisoindolin-2-yl)piperidine-2,6-dione] | < 0.5 | B (B represents substrate protein remaining % > 50%) | B (B represents substrate protein remaining % > 50%) | A (A represents 0% ≤ substrate protein remaining % ≤ 50%) |  |  | 
O=C1CCC(N2Cc3cc(CCCN4CCN(C(c5ccccc5)c5ccccc5)CC4)ccc3C2=O)C(=O)N1 (stereo not shown) [GT-05688, 3-(5-(3-(4-benzhydrylpiperazin-1-yl)propyl)-1-oxoisoindolin-2-yl)piperidine-2,6-dione] | 1 to 1.9 | A (A represents 0% ≤ substrate protein remaining % ≤ 50%) | A (A represents 0% ≤ substrate protein remaining % ≤ 50%) | B (B represents substrate protein remaining % > 50%) |  | below 50 nM | below 50 nM
